In US11014902B2, “MYC G-quadruplex stabilizing small molecules and their use” (The United States of America, as represented by the …, priority 2015, dated 2021):
“Also recorded” adds a separate entry of the source.

Columns and labels:
Assay type in all cases: cell-based, human
[1] = tested on: c-MYC expression in CA46 cells; assay: c-MYC expression in CA46 Burkitt's Lymphoma line; details: CA46 line lacking G4 control
Text: To confirm a G4 specific mechanism of action in cells, the CA46 Burkitt's Lymphoma line was used in an exon-specific assay, as previously reported (Boddupally, et al., J Med Chem 2012, 55, 6076). For most cell lines, 85-90% of c-Myc expression is controlled by the G4 located prior to exons 1 and 2 in the promoter. Furthermore, expression predominantly occurs following exon 2, due to a thousand-fold increase in transcription from this allele (Brown, et al., J Biol Chem 2011, 286, 41018). The CA46 Burkitt's Lymphoma cell line is an exception to this trend due to the existence of a chromosome (8:14) (Pelicci, et al., Proc Natl Acad Sci USA 1986, 83, 2984) translocation between exons 1 and 2, leaving exon 1 under G4 control. As a result, c-Myc expression from exon 2 is G4 independent (FIG. 3B). This renders the overall cell line resistant to G4-mediated c-Myc inhibition at the RNA and protein level, and proliferation should be uninhibited by G4-stabilizing agents. […]
Cell pellets/tissue were homogenized and lysed in RIPA buffer on ice for 1 h. Protein was quantitated by BCA, and equal protein was loaded onto 4-12% Bis-Tris Gels (Novex), electrophoresed at 150 V for 75 min to obtain sufficient separation, and transferred via the iBlot system (Life Technologies). […]

[2] = tested on: CA46 Burkitt's Lymphoma line; assay: CA46 cell viability
Protocol: Since two thirds of multiple myeloma cases involve deregulated c-MYC expression (Kuehl and Bergsagel, Blood 2012, 120, 2351; Shou, et al., Proc Natl Acad Sci USA 2000, 97, 228), we elected to evaluate the cell viability effects of Compound 1 in a multiple myeloma model. […] This suppression was maintained over 72 hours, which is notable given the characteristic rapid replenishment of the protein—a phenomenon that complicates targeting c-Myc at the protein level (FIG. 4C). This effect was maintained across a genetically diverse set of 4 multiple myeloma lines. We observed decreases in c-MYC translation in all lines tested, and this effect also correlated with decreases in viability (FIG. 4D).
Human multiple myeloma and Burkitt's Lymphoma cell lines L363, CA46, MM-1R, KMS-11, and MM-1S were cultured and authenticated as previously described (Simmons, et al., Molecular oncology 2014, 8, 261). All plasma derived cell lines were cultured in RPMI-1640 (2 mM L-glutamine, 10% fetal bovine serum (FBS), 100 U/ml penicillin, 100 μg/ml streptomycin: Gibco) and incubated at 37° C. with 5% CO2. […] MTS reagent was then directly added, incubated at 37° C. for 90 min, and absorbance of MTS formazan was read at 500 nm on an Omega 640 spectrophotometer. Percentage cell viability was normalized to the absorbance of untreated (DMSO) wells. […]

[3] = tested on: c-Myc protein in H1299 cells; assay: c-Myc protein expression by Western blot, H1299; details: 10 μM
Protocol: The effect of Compound 23 on the expression of c-Myc protein in the human lung cancer cell lines H1299 and H157 was also assayed. H1299 and H157 cells were treated with 10 μM Compound 23 and c-Myc protein expression levels quantified by Western blot. In Compound 23-treated H1299 cells, c-Myc protein expression levels were approximately 55% compared to untreated control cells. In Compound 23-treated H157 cells, c-Myc protein expression levels were approximately 74% compared to untreated control cells.

How did the “c-MYC expression / protein translation” value [1] turn out when `Cc1ccc(NC(=O)c2c(C)oc3ccc(O)c(CN4CCCCCC4)c23)cc1` [Compound 1] was run?
The value was “resistant to inhibition of c-Myc protein translation; also recorded: negligible changes”.

What about the cell viability [2] of the same compound?
The cell viability was “negligible changes”.

With `Cc1oc2ccc(O)c(CN3CCCCCC3)c2c1C(=O)Nc1ccc(C(F)(F)F)cc1` [Compound 23] as the compound, how does the “c-Myc protein expression levels compared to untreated control cells” value [3] read?
The value was “approximately 55%”.
